Results on five molecules are retold here after patent US6642389B2, “Oxazole derivatives” (Hoffmann-La Roche Inc., priority 2001, dated 2003).

Data set [1] addresses T1, PPARα (Homo sapiens, UniProt Q07869).
T1 sequence (Q07869 167-468 limits assumed): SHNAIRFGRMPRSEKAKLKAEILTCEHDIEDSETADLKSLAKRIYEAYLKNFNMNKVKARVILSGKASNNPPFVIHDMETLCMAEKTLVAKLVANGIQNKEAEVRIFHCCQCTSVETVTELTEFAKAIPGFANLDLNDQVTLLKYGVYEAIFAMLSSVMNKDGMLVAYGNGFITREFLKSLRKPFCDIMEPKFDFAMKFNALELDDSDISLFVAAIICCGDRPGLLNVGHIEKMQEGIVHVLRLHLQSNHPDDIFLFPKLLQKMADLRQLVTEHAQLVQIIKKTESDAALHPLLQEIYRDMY
Kind of data set: Radioligand binding assay, PPARα receptor binding (GST-PPARα-LBD fusion protein). An excerpt: (§1) Full-length cDNA clones for human PPARα and mouse PPARγ were obtained by RT-PCR from human adipose and mouse liver cRNA, respectively, cloned into plasmid vectors and verified by DNA sequencing. […] To accomplish this, the portions of the cloned sequences encoding the LBDs were amplified from the full-length clones by PCR and then subcloned into the plasmid vectors pGEX4T-2(Pharmacia) and pFA-CMV(Stratagene). Final clones were verified by DNA sequence analysis.
(§2) Induction, expression, and purification of GST-LBD fusion proteins were performed in E. coli strain BL21(pLysS) cells by standard methods (Ref: Current Protocols in Molecular Biology, Wiley Press, edited by Ausubel et al.).
PPARα receptor binding was assayed in TKE10 (10 mM Tris-HCl, pH 8, 50 mM KCl, 2 mM EDTA, 0.1 mg/ml fatty acid free BSA and 10 mM DTT). […]
PPARγ receptor binding was assayed in TKE50 (50 mM Tris-HCl, pH 8, 50 mM KCl, 2 mM EDTA, 0.1 mg/ml fatty acid-free BSA and 10 mM DTT). […] All binding assays were performed in 96 well plates and the amount of bound ligand measured on a Packard TopCount using OptiPlates (Packard). Nonspecific binding was determined in the presence of 10^−4 M unlabelled compound. […]

Data set [2] addresses T1, PPARα. Kind of data set: Luciferase transcriptional reporter gene assay, pFA-PPARα-LBD in BHK21 cells. Further details: expressed in transfected cells; host or cells: BHK21 (ATCC CCL10). As to conditions: Gal4-PPARα-LBD. It is filed as cell-based.
Description: as §1
(§3) Baby hamster kidney cells (BHK21 ATCC CCL10) were grown in DMEM medium containing 10% FBS at 37° C. in a […]:5% CO2 atmosphere. Cells were seeded in 6 well plates at a density of 10^5 Cells/well and then batch-transfected with either the pFA-PPARγ-LBD or pFA-PPARα-LBD expression plasmids plus the pFR-luc reporter plasmid (Stratagene) and an expression plasmid encoding the secretable form of alkaline phosphatase (SEAP) as a normalization control. […] Six hours following transfection, the cells were harvested by trypsinization and seeded in 96 well plates at a density of 10^4 cells/well. After 24 hours to allow attachment of cells, the medium was removed and replaced with 100 ul of phenol red-free medium containing the test substances or control ligands (final. 0.1% DMSO). Following incubation of the cells for 24 hours with substances, 50 ul of the supernatant was recovered and analyzed for SEAP activity (Roche Molecular Biochemicals). The remainder of the supernatant was discarded, 50 ul PBS was added per well followed by one volume of Luciferase Constant-Light Reagent (Roche Molecular Biochemicals) to lyse the cells and initiate the luciferase reaction. Luminescence for both SEAP and luciferase was measured in a Packard TopCount. Luciferase activity was normalized to the SEAP control and transcriptional activation in the presence of a test substance was expressed as fold-activation over cells incubated in the absence of the substance. EC50 values were calculated using the XLfit program (ID Business Solutions Ltd. UK).

For data set [3], the target named is T2, PPARγ (Mus musculus, UniProt P37238).
T2 construct: expressed in transfected cells; host or cells: BHK21 (ATCC CCL10)
T2 sequence (P37238 204-505): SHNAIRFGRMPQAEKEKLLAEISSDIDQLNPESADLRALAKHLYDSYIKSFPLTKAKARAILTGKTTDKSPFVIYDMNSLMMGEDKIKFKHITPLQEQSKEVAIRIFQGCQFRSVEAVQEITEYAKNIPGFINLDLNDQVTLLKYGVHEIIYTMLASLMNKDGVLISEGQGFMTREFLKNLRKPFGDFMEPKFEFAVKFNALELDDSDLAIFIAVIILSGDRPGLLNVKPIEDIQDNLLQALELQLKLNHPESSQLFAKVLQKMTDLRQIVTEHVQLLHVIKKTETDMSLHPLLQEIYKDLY
Kind of data set: Luciferase transcriptional reporter gene assay, pFA-PPARγ-LBD in BHK21 cells. As to conditions: Gal4-PPARγ-LBD. It is filed as cell-based.
Description: as §1, §3

For data set [4], the target named is T3, PPARγ (Mus musculus, UniProt P37238).
T3 construct: made in house; host or cells: E. coli BL21(pLysS)
T3 sequence (P37238 174-475 isoform P37238-2): T2 sequence (P37238 204-505)
Kind of data set: Radioligand binding assay, PPARγ receptor binding (GST-PPARγ-LBD fusion protein, SPA). The settings on record: scintillation proximity.
Description: as §1, §2
PPARγ receptor binding was assayed in TKE50 (50 mM Tris-HCl, pH 8, 50 mM KCl, 2 mM EDTA, 0.1 mg/ml fatty acid-free BSA and 10 mM DTT). For each 96 well reaction an 140 ng equivalent of GST-PPARγ-LBD fusion protein was bound to 10 ug SPA beads (PharmaciaAmersham) in a final volume of 50 ul by shaking. The resulting slurry was incubated for 1 h at RT and centrifuged for 2 min at 1300 g. The supernatant containing unbound protein was removed and the semidry pellet containing the recptor-coated beads was resolved in 50 ul of TKE. For radioligand binding e.g. 10000 dpm 2(S)-(2-benzoyl-phenylamino)-3-{4-[1,1-ditritio-2-(5-methyl-2-phenyl-oxazol-4-yl)-ethoxy]-phenyl}-propionic acid in 50 ul were added, the reaction incubated at RT for 1 h and scintillation proximity counting performed. All binding assays were performed in 96 well plates and the amount of bound ligand measured on a Packard TopCount using OptiPlates (Packard). Nonspecific binding was determined in the presence of 10^−4 M unlabelled compound. Dose response curves were done in triplicates within a range of concentration from 10^−10 M to 10^−4 M.

Turning to `CCCCOC(Cc1ccc(OCCc2nc(-c3ccccc3)oc2C)c2ccsc12)C(=O)O` (stereo not shown) [Example 4, 2-Butoxy-3-{4-[2-(5-methyl-2-phenyl-oxazol-4-yl)-ethoxy]-benzo[b]thiophen-7-yl}-propionic acid], the melting point was 123 °C (dec.).
For the molecule `CCCCOC(Cc1ccc(OCCc2nc(-c3ccccc3)oc2C)c2ccccc12)C(=O)O` (stereo not shown) [Example 10, 2-Butoxy-3-{4-[2-(5-methyl-2-phenyl-oxazol-4-yl)-ethoxy]-naphthalen-1-yl}-propionic acid], the melting point is 88 to 90 °C (dec.).
Regarding `C/C(=C/C(=O)c1ccc(C(F)(F)F)cc1)NC(Cc1ccc(OCCc2nc(-c3ccccc3)oc2C)c2ccsc12)C(=O)O` (racemic) [Example 106, [rac]-2-[1-Methyl-3-oxo-3-(4-trifluoromethyl-phenyl)-(Z)-propenylamino]-3-{4-[2-(5-methyl-2-phenyl-oxazol-4-yl)-ethoxy]-benzo[b]thiophen-7-yl}-propionic acid], the IC50 on PPARα [1] was determined as 0.259 µM; at PPARγ [4], 0.112 µM. The EC50 at PPARα [2] is 0.138 µM; on PPARγ [3], 0.501 µM.
`COC(Cc1ccc(OCCCc2nc(-c3ccc(Cl)cc3)oc2C)c2ccsc12)C(=O)O` (racemic) [Example 48, [rac]-3-(4-{3-[2-(4-Chloro-phenyl)-5-methyl-oxazol-4-yl]-propoxy}-benzo[b]thiophen-7-yl)-2-methoxy-propionic acid]: the EC50 was 0.008 µM on PPARα [2] and 0.464 µM on PPARγ [3]. On PPARγ [4], this molecule showed an IC50 of 3.17 µM.
In the case of `CCO/C(=C\c1ccc(OCCc2nc(-c3ccccc3)oc2C)c2ccoc12)C(=O)O` [Example 83, 2Z-Ethoxy-3-{4-[2-(5-methyl-2-phenyl-oxazol-4-yl)-ethoxy]-benzofuran-7-yl}-acrylic acid], the IC50 amounted to 0.109 µM at PPARα [1] and 0.025 µM at PPARγ [4]. Further, the EC50 on PPARα [2] stood at 0.746 µM; at PPARγ [3], 0.188 µM.
